Experimental data reported in patent US20250376477A1, “ANALGESIC DELTA OPIOID RECEPTOR BITOPIC LIGANDS” (UNIVERSITY OF SOUTHERN CALIFORNIA, priority 2022, published 2025).

Tests used:
C57BL/6J mice [1] = assay: Seizure assay; conditions: for seizures in seizure assay: C57BL/6J mice, sc injection, C6 quino at analgesic doses; for seizure occurrence: compared with known DOR agonists
DOR [2] = biological target: T1, DOR (Homo sapiens, UniProt P41143); assay type: cell-based; conditions: for potency at DOR: BRET based Gi-1 assay / G-protein pathways; for selectivity for DOR over other opioid subtypes: DOR vs KOR and MOR, BRET based Gi-1 assays; for G-protein bias: G-protein vs arrestin at DOR
DOR [3] = biological target: T1, DOR; assay type: cell-based; conditions: compared to DPDPE and C5 quino
DOR [4] = biological target: T1, DOR; assay type: cell-based; conditions: compared to DPDPE and C5 quino; remark: listed apart in the source
sciatic nerve ligation = assay: Mechanical allodynia induced by sciatic nerve ligation; assay type: in vivo
Experimental: Mechanical allodynia induced by sciatic nerve ligation was reduced between 20 and 140 minutes after treatment with 30 mg/kg C6-quino sc. Supraspinal (icv) antinociception mediated by C6 quino is DOR dependent, yet C6-quino produced no seizures (B, top).

DOR [5] = biological target: T2, DOR (Mus musculus, UniProt P32300); assay type: in vivo
T2 construct: from tissue; host or cells: living animal, central nervous system (icv dosing)

PK assays = assay type: in vivo
[6] = In vivo analgesia / oral activity in chronic pain models; conditions: for Orally active: oral
DOR [7] = biological target: T1, DOR; assay type: cell-based; conditions: compared to known DOR orthosteric site binders
C57BL/6J mice [8] = assay: Locomotor effects; conditions: sc injection, C6-quino 30 mg/kg sc
Microsomal stability = conditions: microsomes
C57BL/6J mice [9] = assay: Respiratory depression; conditions: sc injection, morphine 10 mg/kg
C57BL/6J mice [10] = assay: Rotarod assay (motor coordination); conditions: sc injection
KOR = KOR (Homo sapiens, UniProt P41145); assay: BRET based Gi-1 assay, activation of KOR; assay type: cell-based
Sequence of KOR (P41145 whole entry): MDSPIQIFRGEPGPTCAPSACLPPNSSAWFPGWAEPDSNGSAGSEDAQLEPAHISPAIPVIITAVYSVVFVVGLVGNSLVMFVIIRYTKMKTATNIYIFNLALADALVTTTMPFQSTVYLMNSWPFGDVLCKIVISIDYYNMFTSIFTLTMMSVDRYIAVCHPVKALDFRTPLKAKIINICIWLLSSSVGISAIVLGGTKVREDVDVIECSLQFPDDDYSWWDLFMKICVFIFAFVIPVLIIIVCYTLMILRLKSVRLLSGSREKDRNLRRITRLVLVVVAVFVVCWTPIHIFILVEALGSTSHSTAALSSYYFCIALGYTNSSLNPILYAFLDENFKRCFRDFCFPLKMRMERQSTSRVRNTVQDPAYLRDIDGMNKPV

T1 sequence (P41143 whole entry): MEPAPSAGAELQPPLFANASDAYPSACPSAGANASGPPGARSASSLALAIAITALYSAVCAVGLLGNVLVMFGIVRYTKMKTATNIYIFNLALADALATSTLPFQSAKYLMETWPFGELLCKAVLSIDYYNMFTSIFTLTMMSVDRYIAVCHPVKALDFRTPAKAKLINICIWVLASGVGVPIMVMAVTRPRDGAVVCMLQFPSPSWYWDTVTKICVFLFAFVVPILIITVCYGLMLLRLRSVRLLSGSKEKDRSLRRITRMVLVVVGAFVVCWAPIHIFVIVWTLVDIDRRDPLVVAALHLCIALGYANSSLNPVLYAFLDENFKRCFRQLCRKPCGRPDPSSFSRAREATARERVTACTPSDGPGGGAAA
T2 sequence (P32300 whole entry): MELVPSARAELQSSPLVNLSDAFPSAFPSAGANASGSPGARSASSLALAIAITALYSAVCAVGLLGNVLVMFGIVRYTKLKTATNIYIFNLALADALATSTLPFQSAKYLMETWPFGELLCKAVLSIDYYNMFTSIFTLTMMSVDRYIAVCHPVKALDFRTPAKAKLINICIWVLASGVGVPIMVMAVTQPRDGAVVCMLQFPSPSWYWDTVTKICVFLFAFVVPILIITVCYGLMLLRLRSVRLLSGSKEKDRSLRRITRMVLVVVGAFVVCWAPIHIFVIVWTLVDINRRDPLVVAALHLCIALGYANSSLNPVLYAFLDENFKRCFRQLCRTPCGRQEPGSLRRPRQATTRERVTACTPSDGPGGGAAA

## C=CCN1C[C@H](C)N([C@H](c2ccc(C(=O)N(CC)CC)cc2)c2cccc(OC)c2)C[C@H]1C [SNC80, reference compound]
C57BL/6J mice [1]
  seizures in seizure assay: caused seizures

## N=C(N)NCCCCCCN1CCC23c4c5ccc(O)c4O[C@H]2c2nc4ccccc4cc2C[C@@]3(O)C1C5 (stereo partly shown) [C6-Quino]
DOR [2]
  potency at DOR: high potency
  selectivity for DOR over other opioid subtypes: selectivity for DOR over other opioid subtypes
  G-protein bias: G-protein biased
DOR [2]; compared to DPDPE and C5 quino
  intrinsic efficacy at DOR, G-protein: lower intrinsic efficacy
DOR [3]
  intrinsic efficacy at DOR, βarrestin-1: lower intrinsic efficacy
DOR [4]
  intrinsic efficacy at DOR, βarrestin-2: lower intrinsic efficacy
Sciatic nerve ligation; antagonist NTB
  anti-allodynic effect in presence of NTB: antagonized by NTB
Sciatic nerve ligation; sciatic nerve ligation, mechanical allodynia
  anti-allodynic activity: dose- and time-dependent anti-allodynic activity similar to gabapentin
DOR [5]
  supraspinal (icv) antinociception, receptor dependence: DOR dependent
PK assays; PK assays
  brain penetration: good
  systemic availability: good
PK assays; in vivo
  half-life: 2 h
[6]
  efficacy in chronic pain models: effective in chronic pain models
  Orally active: orally active
[6]; listed as 6C-Quino
  Orally active: YES
DOR [7]
  functional profile (potency and efficacy) across DOR G protein subtypes and βarrestin-1 and 2: unique functional profiling
C57BL/6J mice [1]
  seizures in seizure assay: no seizures
  seizure occurrence: do not cause seizures
C57BL/6J mice [1]; FIG. 4B top
  seizures: no seizures
C57BL/6J mice [8]
  locomotor activity: did not significantly differ from the vehicle at any time point
Microsomal stability
  half-life: > 2 h
C57BL/6J mice [9]
  respiratory depression: did not cause significant respiratory depression
C57BL/6J mice [10]
  sedation in rotarod assay: no propensity to cause sedation

## CN1CC[C@]23c4c5ccc(O)c4O[C@H]2[C@@H](O)C=C[C@H]3[C@H]1C5 [Morphine, reference compound]
C57BL/6J mice [8]
  locomotor activity: hyperlocomotion
C57BL/6J mice [9]
  respiratory depression: caused respiratory depression

## N=C(N)NCCCCCCN1CCC23c4c5ccc(O)c4O[C@H]2c2[nH]c4ccccc4c2C[C@@]3(O)C1C5 (stereo partly shown) [C6-Indole]
DOR [2]
  potency at DOR: high potency
  G-protein bias: G-protein biased
KOR
  activity at KOR: retained activity
[6]
  efficacy in chronic pain models: effective in chronic pain models
  Orally active: orally active
C57BL/6J mice [1]
  seizure occurrence: do not cause seizures

## N=C(N)NCCCCCN1CCC23c4c5ccc(O)c4O[C@H]2c2nc4ccccc4cc2C[C@@]3(O)C1C5 (stereo partly shown) [C5-Quino]
DOR [2]
  potency at DOR: high potency
  selectivity for DOR over other opioid subtypes: selectivity for DOR over other opioid subtypes
DOR [7]
  functional profile (potency and efficacy) across DOR G protein subtypes and βarrestin-1 and 2: unique functional profiling

## N=C(N)NCCCCCN1CC[C@]23c4c5ccc(O)c4O[C@H]2c2[nH]c4ccccc4c2C[C@@]3(O)[C@H]1C5 [C5-Indole]
DOR [2]
  potency at DOR: high potency
KOR
  activity at KOR: retained activity
